Data set [1] deals with DENV-2 (dengue virus-2). The conditions noted are these: cited from earlier work.
Data set [2] deals with influenza A/chicken/Egypt/N12640A/2016(H5N1). Put plainly: microbe, parasite or virus in culture. It is filed as cell-based, influenza A virus.
Data set [3] relates to influenza A/Egypt/NRC098/2019(H1N1). Nature of the data set: microbe, parasite or virus in culture. Type of data set: cell-based, influenza A virus. To be noted: for IC50: Influenza A virus, H1N1, MDCK.
The test system of data set [4] is MDCK cells. To be noted: dog.
Data set [5] in a line: in vitro. The conditions noted are these: dog.
The test system of data set [6] is influenza A/H5N1 virus. Nature of the data set: microbe, parasite or virus in culture. Type of data set: cell-based. The conditions noted are these: H5N1, read-out: Viral inhibition (%) Mean.
The subject of data set [7] is influenza A/H1N1 virus. Nature of the data set: microbe, parasite or virus in culture. The conditions noted are these: H1N1, read-out: Viral inhibition (%) Mean. Type of data set: cell-based.
The test system of data set [8] is influenza A/H5N1 virus. Put plainly: microbe, parasite or virus in culture. It is filed as cell-based.
For data set [9], the system named is influenza A/H5N1 virus. Put plainly: microbe, parasite or virus in culture. Type of data set: cell-based. The source holds these as a separate data set.
Data set [10] deals with influenza A/H5N1 virus. Nature of the data set: microbe, parasite or virus in culture. Type of data set: cell-based. The source holds these as a separate data set.
Data set [11] concerns HSV-1. The conditions noted are these: cited from earlier work.
Data set [12] deals with HSV-2. To be noted: cited from earlier work.
The subject of data set [13] is HSV-2. To be noted: cited from earlier work. The source holds these as a separate data set.
Data set [14] concerns severe acute respiratory syndrome coronavirus (SARS-CoV). The conditions noted are these: cited from earlier work.
The conditions of data set [15]: in vivo; cited from earlier work.
[16] abbreviates: Influenza A virus, H5N1, MDCK, 72 h.
Setting [17] is: Influenza A virus, H5N1, MDCK, read-out: PIC50 H5N1.
[18] abbreviates: Influenza A virus, H5N1, read-out: Viral replication (%) viral inhibition.
The mark [19] stands for this setting: Influenza A virus, H5N1, read-out: Viricidal (%) viral inhibition.
[20] abbreviates: Influenza A virus, H5N1, read-out: Viral adsorption (%) viral inhibition.

Each structure is given as a SMILES string. ≈ marks a conversion by molar mass, not a printed value. Entries after “also recorded” stand apart in the source; their conditions may differ. Structures can show the parent of a compound that is named as a salt. Where two headings read alike, the source gives them in different places. A value given as a limit tells only on which side of the number the result lay.

As for `COc1ccc2c3ccnc(C)c3n(C)c2c1` [9 N methylharmine], the EC50 (commonly the concentration at which the effect is half-maximal) in data set [1] was 3200 ± 600 nM.

As for `NC12CC3CC(CC(C3)C1)C2` [Amantadine HCl, reference compound], the “Selectivity index (SI)” value in [2] was 62.71; in data set [3], 74.32. In addition, the IC50 in data set [2] (setting [16]) amounted to 17.6 µg/mL; in [3] (72 h) it was 14.9 µg/mL. Also, the CC50 in data set [4] came out at 1103 µg/mL; in data set [5], 1100 µg/mL.

For `COc1cc2c(cc1OC)[C@@]13CCN4CC5=CCO[C@H]6CC(=O)N2[C@H]1[C@H]6[C@H]5C[C@H]43` [Brucine], the “anti-influenza activity against avian influenza A/H5N1 virus (in words)” value in data set [2] is “poor or no antiviral potential activity”. For the same molecule, the IC50 in data set [2] (setting [16]) was > 10000 µg/mL. For the same molecule, the CC50 in data set [5] was > 10000 µg/mL.

With `CNC(=O)Oc1ccc2c(c1)[C@]1(C)CCN(C)[C@@H]1N2C` [Eserine], the “anti-influenza activity against avian influenza A/H5N1 virus (in words)” value in data set [2] is given as “poor or no antiviral potential activity”. Also, the IC50 in data set [2] (setting [16]) is > 10000 µg/mL. In data set [3], the “anti-influenza activity against human influenza A/H1N1 virus (in words)” value is listed as “no antiviral activity”. Further, the CC50 in [5] was > 10000 µg/mL.

Turning to `COc1ccc2c3c([nH]c2c1)C(C)=NCC3` [Harmaline], the “Selectivity index (SI)” value in data set [2] amounted to 138; in data set [3], 8482. For the same molecule, the IC50 in [2] (setting [16]) was 3.42 µg/mL; in [2] (setting [17]), 28100 nM; in [3] (72 h), 0.056 µg/mL; in [3] (read-out: PIC50 H1N1), 20 nM. Besides, the inhibition (usually the share of the control response that was lost under treatment) at 1 µg/mL in data set [6] was 72.6%; in [7], 66.7%; in data set [8] (setting [18]), 28.3%; in [9] (setting [19]), 91%; in data set [10] (setting [20]), 34%. Moreover, the inhibition at 10 µg/mL in [6] was found to be 87.7%; in data set [7], 77.8%; in data set [8] (setting [18]), 40.3%; in data set [9] (setting [19]) it was 96.7%; in data set [10] (setting [20]), 46.2%. Further, the inhibition at 100 µg/mL in data set [6] is 94.2%; in data set [7] it was 86.5%; in data set [8] (setting [18]) it was 48.7%; in data set [9] (setting [19]), 98.6%; in data set [10] (setting [20]), 51.8%. Besides, the “main stage of antiviral action: viricidal (in words)” value in data set [9] was “direct cell-free viricidal effect”. This molecule also had a CC50 in data set [5] of 475 µg/mL (≈ 2.22 mM).

Turning to `CC1=NCCc2c1[nH]c1cc(O)ccc21` [Harmalol], the “Selectivity index (SI)” value in data set [2] is given as > 5*10^5; in [3], > 2.8*10^5. The IC50 was 0.02 µg/mL in [2] (setting [16]), 21 nM in [2] (setting [17]), 0.035 µg/mL in data set [3] (72 h) and 20 nM in [3] (read-out: PIC50 H1N1). Also, the inhibition at 0.1 µg/mL in data set [6] came out at 54.7%; in [7], 74.3%; in data set [8] (setting [18]) it was 87.5%; in data set [9] (setting [19]) it was 41.5%; in data set [10] (setting [20]), 60.3%. For the same molecule, the inhibition at 1 µg/mL was 73.3% in data set [6]; 79.6% in [7]; 96.9% in [8] (setting [18]); 50.9% in data set [9] (setting [19]); 74.5% in data set [10] (setting [20]). For the same molecule, the inhibition at 10 µg/mL in data set [6] worked out at 86.4%; in [7], 91.8%; in data set [8] (setting [18]) it was 98.7%; in data set [9] (setting [19]) it was 58%; in data set [10] (setting [20]) it was 82.1%. In addition, the “main stage of antiviral action: viral replication (in words)” value in data set [8] is on record as “interference with the viral replication compartment”. The CC50 in [5] is > 10000 µg/mL.

Consider `Cc1nccc2c1[nH]c1ccccc12` [Harmane], for which the IC50 in data set [2] (setting [16]) is 0.023 µg/mL; in [2] (setting [17]), 23 nM; in [3] (72 h), 0.033 µg/mL; in data set [3] (read-out: PIC50 H1N1), 18.2 nM. Besides, in data set [3], the “Selectivity index (SI)” value is given as > 2.17*10^5. In addition, the inhibition at 10 µg/mL in [6] was determined as 65.5%; in [7], 55.1%; in data set [8] (setting [18]), 83.3%; in data set [9] (setting [19]) it was 31.8%; in data set [10] (setting [20]), 43.4%. Besides, the inhibition at 100 µg/mL in data set [6] stood at 74.4%; in [7] it was 74.4%; in data set [8] (setting [18]), 97.5%; in data set [9] (setting [19]), 41.8%; in [10] (setting [20]) it was 48.7%. For the same molecule, the inhibition at 1000 µg/mL is 85% in [6]; 84.6% in data set [7]; 96.7% in [8] (setting [18]); 82.1% in data set [9] (setting [19]); 61.4% in [10] (setting [20]). The “main stage of antiviral action: viral replication (in words)” value in data set [8] is listed as “interference with the viral replication compartment”. Moreover, the EC50 was 4.90 µg/mL (≈ 0.0269 mM) in [11] and 71.8 µg/mL (≈ 0.394 mM) in data set [12]. Besides, the CC50 in data set [5] turned out to be 7180 µg/mL (≈ 39.4 mM).

Take `COc1ccc2c(c1)[nH]c1c(C)nccc12` [Harmine]: in data set [2], the “anti-influenza activity against avian influenza A/H5N1 virus (in words)” value is “poor or no antiviral potential activity; also recorded: no effect; also recorded: no anti-influenza activity”. In data set [2] (setting [16]), the IC50 is > 10000 µg/mL. Moreover, the EC50 in data set [13] is 1470 nM. The CC50 in data set [5] was > 10000 µg/mL.

Consider `CC[C@@H](CO)NC(=O)[C@@H]1C=C2c3cccc4[nH]cc(c34)C[C@H]2N(C)C1` [Methyl ergometrine], for which the “anti-influenza activity against avian influenza A/H5N1 virus (in words)” value in data set [2] was “poor or no antiviral potential activity”. Further, the IC50 in data set [2] (setting [16]) is > 1000 µg/mL. The same molecule had a CC50 in data set [5] of 8230 µg/mL (≈ 24.2 mM).

Consider `c1ccc2c(c1)[nH]c1cnccc12` [Norharmane], for which the “anti-influenza activity against avian influenza A/H5N1 virus (in words)” value in [2] was “poor or no antiviral potential activity; also recorded: no effect”. Moreover, the IC50 in data set [2] (setting [16]) was > 10000 µg/mL. In addition, in data set [5], the CC50 was > 10000 µg/mL.

Consider `COC(=O)[C@H]1[C@H]2C[C@@H]3c4[nH]c5cc(OC)ccc5c4CCN3C[C@H]2C[C@@H](OC(=O)c2cc(OC)c(OC)c(OC)c2)[C@@H]1OC` [Reserpine], for which, in data set [2], the “Selectivity index (SI)” value is > 33 and the “anti-influenza activity against avian influenza A/H5N1 virus (in words)” value is on record as “moderate anti-influenza activity”. This molecule also gave an IC50 in data set [2] (setting [16]) of 42.4 µg/mL. In data set [3], the “anti-influenza activity against human influenza A/H1N1 virus (in words)” value is “moderate anti-influenza potential”. Besides, the EC50 in [14] is 3400 nM. Moreover, the CC50 in data set [5] stood at 1400 µg/mL (≈ 2.3 mM).

For `O=C1C[C@@H]2OCC=C3CN4CC[C@]56c7ccccc7N1[C@H]5[C@H]2[C@H]3C[C@H]46` [Strychnine Sulfate, Strychnine sulfate], the IC50 worked out at 11.851 µg/mL in data set [2], 11.8 µg/mL in data set [2] (setting [16]) and 0.06 µg/mL in data set [3] (72 h). For the same molecule, the “Selectivity index (SI)” value in data set [2] is given as > 843; in [3], > 1.67*10^5. The inhibition at 1 µg/mL in data set [6] turned out to be 74.4%; in data set [7], 65.5%; in [8] (setting [18]), 19.4%; in data set [9] (setting [19]), 29.4%; in data set [10] (setting [20]), 90.1%. Besides, the inhibition at 10 µg/mL in data set [6] worked out at 84%; in [7] it was 71.6%; in data set [8] (setting [18]) it was 27.3%; in data set [9] (setting [19]), 37%; in [10] (setting [20]), 99.5%. Besides, the inhibition at 100 µg/mL in [6] came to 96.3%; in data set [7], 87.4%; in data set [8] (setting [18]), 42%; in data set [9] (setting [19]), 49.2%; in [10] (setting [20]), 99%. Besides, the “main stage of antiviral action: viral adsorption (in words)” value in data set [10] is reported as “hindering IAV adsorption to the host cell (MDCK) receptors”. In addition, the CC50 in data set [5] is > 10000 µg/mL.

Regarding `CC(=O)N[C@H]1[C@H]([C@H](O)[C@H](O)CO)OC(C(=O)O)=C[C@@H]1N=C(N)N` [Zanamivir, reference compound], the “Selectivity index (SI)” value in data set [2] was > 1.26*10^5; in data set [3] it was > 3.4*10^4. Also, the IC50 was 0.079 µg/mL in data set [2] (setting [16]) and 0.291 µg/mL in data set [3] (72 h). Moreover, in data set [5], the CC50 is > 10000 µg/mL.

As to `O=C1C[C@@H]2OCC=C3CN4CC[C@]56c7ccccc7N1[C@H]5[C@H]2[C@H]3C[C@H]46` [strychnine], the “high dose causing muscle contraction and convulsions that can lead to respiratory paralysis” value in data set [15] is on record as 1.5 mg/kg.

The record behind these values is PMC9883826 (Scientific Reports, 2023).
